Experimental data as given in ChEMBL document CHEMBL4017513, “Structure-Activity Relationships of Potent, Targeted Covalent Inhibitors That Abolish Both the Transamidation and GTP Binding Activities of Human Tissue Transglutaminase” (J Med Chem, 2017).

What was measured:
[1] = target: T1, Protein-glutamine gamma-glutamyltransferase (Homo sapiens) (UniProt P21980); assay: Ratio of kinact to Ki for human TG2 by colorimetric assay
T1 sequence (whole entry): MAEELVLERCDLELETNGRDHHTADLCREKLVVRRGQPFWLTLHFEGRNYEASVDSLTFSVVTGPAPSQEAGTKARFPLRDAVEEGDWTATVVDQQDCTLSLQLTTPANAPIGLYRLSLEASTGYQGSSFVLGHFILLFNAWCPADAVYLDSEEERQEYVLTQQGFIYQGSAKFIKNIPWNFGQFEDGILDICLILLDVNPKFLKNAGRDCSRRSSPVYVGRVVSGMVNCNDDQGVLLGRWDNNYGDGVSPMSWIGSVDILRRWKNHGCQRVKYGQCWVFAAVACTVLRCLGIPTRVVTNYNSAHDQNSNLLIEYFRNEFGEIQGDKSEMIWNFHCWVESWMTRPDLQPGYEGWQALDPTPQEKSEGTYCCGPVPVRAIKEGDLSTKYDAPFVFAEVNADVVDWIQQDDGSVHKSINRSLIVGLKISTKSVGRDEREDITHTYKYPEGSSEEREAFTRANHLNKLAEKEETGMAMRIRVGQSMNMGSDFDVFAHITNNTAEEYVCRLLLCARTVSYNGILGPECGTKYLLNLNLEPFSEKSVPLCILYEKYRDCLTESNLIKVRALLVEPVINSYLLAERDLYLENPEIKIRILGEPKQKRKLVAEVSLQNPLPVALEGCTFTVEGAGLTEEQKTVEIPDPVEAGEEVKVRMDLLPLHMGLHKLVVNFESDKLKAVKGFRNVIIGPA

[2] = Antimigratory activity in human ECS cells at 20 uM treated for 2 hrs measured after 30 hrs by DAPI staining-based inverted fluorescent microscopy relative vehicle-treated control; format: functional
[3] = target: T2, Protein-glutamine gamma-glutamyltransferase 6 (Homo sapiens) (UniProt O95932); assay: Inactivation of human TG6 using AL5 as substrate by colorimetric assay
T2 sequence (whole entry): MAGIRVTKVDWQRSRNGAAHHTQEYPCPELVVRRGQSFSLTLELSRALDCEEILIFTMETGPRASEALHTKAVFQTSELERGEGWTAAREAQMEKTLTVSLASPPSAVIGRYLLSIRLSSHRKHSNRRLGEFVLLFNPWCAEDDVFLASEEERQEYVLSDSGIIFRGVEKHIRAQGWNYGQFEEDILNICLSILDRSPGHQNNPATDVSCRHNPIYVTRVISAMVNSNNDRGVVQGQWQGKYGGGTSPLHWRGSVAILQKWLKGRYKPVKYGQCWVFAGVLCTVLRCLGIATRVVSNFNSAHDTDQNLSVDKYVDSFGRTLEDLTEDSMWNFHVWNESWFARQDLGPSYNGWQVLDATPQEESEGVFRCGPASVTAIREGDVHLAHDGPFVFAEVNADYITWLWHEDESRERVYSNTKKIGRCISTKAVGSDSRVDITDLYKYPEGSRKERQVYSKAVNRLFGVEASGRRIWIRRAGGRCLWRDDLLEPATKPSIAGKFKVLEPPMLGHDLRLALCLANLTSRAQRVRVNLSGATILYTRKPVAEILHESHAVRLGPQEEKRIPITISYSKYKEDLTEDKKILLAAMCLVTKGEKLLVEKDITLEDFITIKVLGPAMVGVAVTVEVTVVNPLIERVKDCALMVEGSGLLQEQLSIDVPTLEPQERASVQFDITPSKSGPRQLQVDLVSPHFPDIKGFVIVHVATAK

Cavia porcellus = species on record: Cavia porcellus; assay: Ratio of Kinact to Ki for guinea pig liver TG2
[4] = target: T1, Protein-glutamine gamma-glutamyltransferase (Homo sapiens); assay: (§1) Irreversible inhibition of human TG2 using AL5 as substrate by colorimetric assay
[5] = target: T3, Protein-glutamine gamma-glutamyltransferase (Homo sapiens, UniProt P21980); assay: as §1
T3 sequence (P21980 whole entry): T1 sequence (whole entry)

[6] = target: T4, Coagulation factor XIII A chain (Homo sapiens) (UniProt P00488); assay: Inactivation of human F13a assessed as rate constant of enzyme inhibition using FRET- quenched A101 as substrate by fluorescence assay
T4 sequence (whole entry): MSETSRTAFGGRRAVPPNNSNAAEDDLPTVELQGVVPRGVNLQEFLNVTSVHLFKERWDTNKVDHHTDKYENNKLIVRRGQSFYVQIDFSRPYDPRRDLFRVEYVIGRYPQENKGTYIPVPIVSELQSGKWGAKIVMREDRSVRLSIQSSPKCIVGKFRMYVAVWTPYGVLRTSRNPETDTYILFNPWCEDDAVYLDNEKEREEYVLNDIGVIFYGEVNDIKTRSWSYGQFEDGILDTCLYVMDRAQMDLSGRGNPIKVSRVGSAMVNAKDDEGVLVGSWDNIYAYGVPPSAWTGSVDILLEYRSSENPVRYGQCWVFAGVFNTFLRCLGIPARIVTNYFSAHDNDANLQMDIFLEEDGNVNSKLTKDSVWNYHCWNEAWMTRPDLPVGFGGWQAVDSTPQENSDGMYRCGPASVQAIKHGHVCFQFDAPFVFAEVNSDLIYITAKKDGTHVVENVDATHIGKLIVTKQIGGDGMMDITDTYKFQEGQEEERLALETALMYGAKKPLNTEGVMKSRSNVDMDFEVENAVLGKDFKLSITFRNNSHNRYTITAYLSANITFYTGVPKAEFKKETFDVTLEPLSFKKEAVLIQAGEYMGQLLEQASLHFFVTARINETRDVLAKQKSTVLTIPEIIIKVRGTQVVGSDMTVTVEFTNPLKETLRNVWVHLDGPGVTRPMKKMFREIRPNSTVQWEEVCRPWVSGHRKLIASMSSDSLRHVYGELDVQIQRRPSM

Homo sapiens = species on record: Homo sapiens; assay: Selectivity ratio of Kobs for human TG2 to Kobs for activated human TG3

## C=CC(=O)NCCCC[C@H](NC(=O)OCc1ccccc1)C(=O)NCCOCCOCCNS(=O)(=O)c1cccc2c(N(C)C)cccc12
[1]
  Ratio: 76.4 ×10³ /M/min
[2]
  Activity: 50%
[3]
  K: 6.16 ×10⁻³ /min
Cavia porcellus
  Ratio: 1.4 ×10⁴ /M/min
[4]
  Kinact: 2.6 min⁻¹
[5]
  Ki: 33.9 µM
[6]
  K: 5.91 ×10⁻³ /min
Homo sapiens
  Selectivity ratio: 390
